Values of other authors as cited in paper PMC5102340 (Advanced functional materials, 2016).
Read-outs that look alike come from different tables or passages of the source.

pKa1: ≈ 9.4
pKa2: ≈ 13.7
pKa1 (listed as catechol): 9.4
SMILES: Oc1ccccc1O [Catechol]
